≈ marks a conversion by molar mass, not a printed value. Each block holds one molecule with its values, some of them ahead of it.
What was measured:
[1] = test system: C. glabrata fluconazole resistant strains; assay: microbe, parasite or virus in culture; type: cell-based, Candida glabrata; settings: Nakaseomyces glabratus, 24 h
[2] = test system: C. albicans fluconazole resistant strains; assay: microbe, parasite or virus in culture; type: cell-based; settings: Candida albicans, 24 h
[3] = test system: C. parapsilosis; assay: Antimicrobial susceptibility testing (microdilution MIC90), C. parapsilosis strains; type: cell-based, Candida parapsilosis; settings: Lodderomyces parapsilosis; C. parapsilosis (24 strains tested); 24 h
Procedure: (§1) Sterile plastic microtitration plates containing flat-bottomed wells were used. The plates contained serial dilution of the antifungal agents with a volume of assay medium of 100 μL/well. Two drug-free medium wells were used as sterility and growth controls. The trays were inoculated with 100 μL/well of the final inoculum, with the exception of sterility control wells. […] The microtitration plates were incubated at 37° C. for 24 h. The minimal inhibitory concentrations (MICs) were determined at 24 h both visually and spectrophotometrically measuring the turbidity at 595 nm with a Varian model 1475 spectrophotometer. Results of biological tests are shown in Table 2, biological data are reported as MIC90 that is the minimum concentration required to inhibit the growth of at least the 90% of the strains tested for each species.

[4] = test system: C. glabrata; assay: Antimicrobial susceptibility testing (microdilution MIC90), C. glabrata strains; type: cell-based, Candida glabrata; settings: Nakaseomyces glabratus; C. glabrata (26 strains tested); 24 h
Procedure: as §1

[5] = test system: C. albicans; assay: Antimicrobial susceptibility testing (microdilution MIC90), C. albicans strains; type: cell-based; settings: Candida albicans; C. albicans (22 strains tested); 24 h, visually and spectrophotometrically
Procedure: as §1

[6] = test system: C. kefyr; assay: Antimicrobial susceptibility testing (microdilution MIC90), C. kefyr strains; type: cell-based, Candida kefyr; settings: Kluyveromyces marxianus; C. kefyr (10 strains tested); 24 h
Procedure: as §1

[7] = test system: C. guilliermondii; assay: Antimicrobial susceptibility testing (microdilution MIC90), C. guilliermondii strains; type: cell-based, Candida guilliermondii; settings: Meyerozyma guilliermondii; C. guilliermondii (10 strains tested); 24 h
Procedure: as §1

[8] = test system: C. krusei; assay: Antimicrobial susceptibility testing (microdilution MIC90), C. krusei strains; type: cell-based, Candida krusei; settings: Pichia kudriavzevii; C. krusei (13 strains tested); 24 h; read-out: MIC90
Procedure: as §1

[9] = test system: C. tropicalis; assay: Antimicrobial susceptibility testing (microdilution MIC90), C. tropicalis strains; type: cell-based; settings: Candida tropicalis; C. tropicalis (11 strains tested); 24 h
Procedure: as §1

[10] = biological target: chitinase enzyme extracted from Trichoderma viride; assay: Chitinase inhibition assay (NP-GlcNAc substrate); type: biochemical
Procedure: Chitinase inhibition assays were conducted against an example of the GH18 family of chitinases, i.e the chitinase enzyme extracted from Trichoderma viride. This enzyme has an high degree of identity compared to chitinase 4 of Candida albicans, and is commercially available from Sigma-Aldrich (catalogue ID: C8241).
The substrate used was the NP-GlcNAc (Sigma-Aldrich, catalogue ID: N9376) dissolved in MES 50 mM at pH6.0; the final concentration was 250 μM. The enzyme was resuspended at 0.11 mg/ml in MES 50 mM at pH 6.0, with a final concentration for the assay of 73 nM diluting with MES 50 mM and BSA 20 μg/ml at pH 6.0. A stock solution of the inhibitors was prepared at 50 mM in DMSO 100%.
The mixture with the inhibitor at various concentrations and the enzyme was prepared directly into the reading plate and left to incubate at room temperature for 20 minutes or three hours. At the end of the incubation times, the substrate was added and the reading was conducted by recording the values up to a maximum time of 10 minutes. The substrate concentration was measured by reading UV absorption at 300 nm (εM^300: 11100), while, the product of hydrolysis were measured at 400 nm (ΔεM^400: 2120). Both IC50 and Ki can be calculated.

[11] = strain DSY284, ERG11 Mutation, mean of three measurements
[12] = strain DSY289, ERG11 Mutation (2)
[13] = strain DSY291, ERG11 Mutation (2)
[14] = strain DSY292, ERG11 Mutation (3)
[15] = strain DSY751, ↑MDR1, ERG11 Mutation
[16] = Enz.-inhib. incubation time 20 min
[17] = Enz.-inhib. incubation time 3 h

SMILES: C[C@@H](c1ncncc1F)[C@](O)(Cn1cncn1)c1ccc(F)cc1F [VOR, Voriconazole, reference compound]
MIC ([1]; strain DSY530, ↑CDR1): 0.5 µg/mL (≈ 1.43 µM) | MIC ([1]; strain DSY754, ↑CDR1): 2 µg/mL (≈ 5.73 µM) | MIC ([1]; strain DSY756, ↑CDR1-CDR2-SNQ2): 4 µg/mL (≈ 11.5 µM) | MIC ([1]; strain DSY2254, ↑CDR1-CDR2): 2 µg/mL (≈ 5.73 µM) | MIC [2, 11]: 4 µg/mL (≈ 11.5 µM) | MIC [2, 12]: 8 µg/mL (≈ 22.9 µM) | MIC [2, 13]: 0.03 µg/mL (≈ 0.0859 µM) | MIC [2, 14]: 2 µg/mL (≈ 5.73 µM) | MIC ([2]; strain DSY296, ERG11 Mutation): 8 µg/mL (≈ 22.9 µM) | MIC ([2]; strain DSY348, ERG11 Mutation): 0.25 µg/mL (≈ 0.716 µM) | MIC ([2]; strain DSY732, ↑CDR1-CDR2): 0.25 µg/mL (≈ 0.716 µM) | MIC ([2]; strain DSY735, ↑CDR1-CDR2): 2 µg/mL (≈ 5.73 µM) | MIC ([2]; strain DSY750, ↑MDR1): 0.016 µg/mL (≈ 0.0458 µM) | MIC [2, 15]: 0.25 µg/mL (≈ 0.716 µM) | MIC ([2]; strain DSY775, ERG11 Mutation): 8 µg/mL (≈ 22.9 µM) | MIC ([2]; strain DSY2323, ↑CDR2-MDR1): 0.25 µg/mL (≈ 0.716 µM)

SMILES: C/C=C/CNC(=N)NCCCCCCCCN1CCCCCCOc2ccccc2CNC(=N)NC1=O [Example 18, 1-[(E)-but-2-enyl]-3-[8-(4-imino-6-oxo-14-oxa-3,5,7-triazabicyclo[13.4.0]nonadeca-1(15), 16,18-trien-7-yl)octyl]guanidine]
MIC ([1]; strain DSY530, ↑CDR1): 32 µg/mL (≈ 62.3 µM) | MIC ([1]; strain DSY754, ↑CDR1): 32 µg/mL (≈ 62.3 µM) | MIC ([1]; strain DSY756, ↑CDR1-CDR2-SNQ2): 64 µg/mL (≈ 125 µM) | MIC ([1]; strain DSY2254, ↑CDR1-CDR2): 64 µg/mL (≈ 125 µM) | MIC ([1]; strain DSY2271, ↑CDR2): 32 µg/mL (≈ 62.3 µM) | MIC90 [3]: 2 µg/mL (≈ 3.89 µM) | MIC90 [4]: 16 µg/mL (≈ 31.1 µM) | MIC90 [5]: 4 µg/mL (≈ 7.79 µM) | MIC [2, 11]: 8 µg/mL (≈ 15.6 µM) | MIC [2, 12]: 8 µg/mL (≈ 15.6 µM) | MIC [2, 13]: 16 µg/mL (≈ 31.1 µM) | MIC [2, 14]: 16 µg/mL (≈ 31.1 µM) | MIC ([2]; strain DSY296, ERG11 Mutation): 16 µg/mL (≈ 31.1 µM) | MIC ([2]; strain DSY348, ERG11 Mutation): 8 µg/mL (≈ 15.6 µM) | MIC ([2]; strain DSY732, ↑CDR1-CDR2): 16 µg/mL (≈ 31.1 µM) | MIC ([2]; strain DSY735, ↑CDR1-CDR2): 16 µg/mL (≈ 31.1 µM) | MIC ([2]; strain DSY750, ↑MDR1): 16 µg/mL (≈ 31.1 µM) | MIC [2, 15]: 16 µg/mL (≈ 31.1 µM) | MIC ([2]; strain DSY775, ERG11 Mutation): 16 µg/mL (≈ 31.1 µM) | MIC ([2]; strain DSY2323, ↑CDR2-MDR1): 16 µg/mL (≈ 31.1 µM) | MIC90 [6]: 2 µg/mL (≈ 3.89 µM) | MIC90 [7]: 2 µg/mL (≈ 3.89 µM) | MIC90 [8]: 4 µg/mL (≈ 7.79 µM) | MIC90 [9]: 1 µg/mL (≈ 1.95 µM)

SMILES: C/C=C/CNC(=N)NCCCCCCCCN1CCCc2ccccc2COc2ccccc2CNC(=N)NC1=O [Example 22, 1-[(2E)-but-2-en-1-yl]-3-(8-{16-imino-14-oxo-2-oxa-13,15,17-triazatricyclo[17.4.0.0^4,9]tricosa-1(19),4(9),5,7,20,22-hexaen-13-yl}octyl)guanidine]
MIC90 [3]: 64 µg/mL (≈ 114 µM) | MIC90 [4]: 128 µg/mL (≈ 228 µM) | MIC90 [5]: 64 µg/mL (≈ 114 µM) | MIC90 [6]: 128 µg/mL (≈ 228 µM) | MIC90 [7]: 64 µg/mL (≈ 114 µM) | MIC90 [8]: 256 µg/mL (≈ 456 µM) | MIC90 [9]: 128 µg/mL (≈ 228 µM)

SMILES: N=C(NCCCCCCCCN1CCCCCCCCNC(=N)NC1=O)NCC1CC1 [Compound 34, 1-(cyclopropylmethyl)-3-[8-(4-imino-2-oxo-1,3,5-triazacyclotridec-1-yl)octyl]guanidine]
IC50 [10, 16]: 252 µM | Ki [10, 16]: 81.4 µM | IC50 [10, 17]: 130 µM | Ki [10, 17]: 42 µM

More lines, now with the values ahead:

MIC90 [3]: 256 µg/mL (≈ 456 µM) | MIC90 [4]: 128 µg/mL (≈ 228 µM) | MIC90 [5]: 256 µg/mL (≈ 456 µM) | MIC90 [6]: 256 µg/mL (≈ 456 µM) | MIC90 [7]: 256 µg/mL (≈ 456 µM) | MIC90 [8]: 256 µg/mL (≈ 456 µM) | MIC90 [9]: 256 µg/mL (≈ 456 µM)
SMILES: C/C=C/CNC(=N)NCCCCCCCCN1CCCc2cccc(c2)COc2ccccc2CNC(=N)NC1=O [Example 23, 1-[(2E)-but-2-en-1-yl]-3-(8-{12-imino-14-oxo-3-oxa-11,13,15-triazatricyclo[17.3.1.0^4,9]tricosa-1(23),4(9),5,7,19,21-hexaen-15-yl}octyl)guanidine]

IC50 [10, 16]: 170 µM | Ki [10, 16]: 55 µM | IC50 [10, 17]: 97 µM | Ki [10, 17]: 31.3 µM
SMILES: C#CCNC(=N)NCCCCCCN1CCCCCCCCNC(=N)NC1=O [Compound 39, 1-[6-(4-imino-2-oxo-1,3,5-triazacyclotridec-1-yl)hexyl]-3-prop-2-ynylguanidine]

IC50 [10, 17]: 111 µM | Ki [10, 17]: 35.8 µM
SMILES: C/C=C/CNC(=N)NCCCCCCN1CCCCCCCCNC(=N)NC1=O [Compound 36, 1-[(E)-but-2-enyl]-3-[6-(4-imino-2-oxo-1,3,5-triazacyclotridec-1-yl)hexyl]guanidine]

Reference: US10071975B2, “Macrocyclic amidinourea derivatives, methods of preparation and uses thereof as chitinase inhibitors” (CYGNET BIOSCIENCES B.V., priority 2013, dated 2018)
